Assay results as given in patent US6043212A, “Recombinant C140 receptor, its agonists and antagonists, and nucleic acids encoding the receptor” (COR Therapeutics, Inc., priority 1995, dated 2000).
Peptide text beside a SMILES is read from it.

Assay: Hypotensive activity: arterial pressure after injection into rat femoral vein
Assay type: in vivo
Conditions: FIG. 7
Protocol: The C140 agonist SLIGRL (SEQ ID NO: 23) was injected in 0.2 ml buffer at various concentrations into rat femoral vein and the arterial pressure was monitored.

Q: For `CC[C@H](C)[C@H](NC(=O)[C@H](CC(C)C)NC(=O)[C@@H](N)CO)C(=O)NCC(=O)N[C@@H](CCCNC(=N)N)C(=O)N[C@@H](CC(C)C)C(=O)O` [SLIGRL] (H-SLIGRL-OH), which “Effect on arterial blood pressure” value (0.2 ml buffer at 0.1 mM into femoral vein) is on record?
A: appreciable decrease in blood pressure

Q: And the “Effect on arterial blood pressure” value (0.2 ml buffer at 1 mM into femoral vein)?
A: larger decreases
